Data reported in publication PMC6271274, “Synthesis, Leishmanicidal Activity and Theoretical Evaluations of a Series of Substituted bis-2-Hydroxy-1,4-Naphthoquinones” (Molecules, 2014).
“And” between values parts separate entries of the source, which are not always exact repeats. Equal entries are not always repeated.

Legend:
[1] = system: L. braziliensis promastigotes; experiment: In vitro activity against L. braziliensis promastigotes; type: cell-based, Leishmania braziliensis; settings: for IC50 / Emax: Leishmania braziliensis, L. braziliensis promastigotes, 48 h; for IC50: maximal concentration 100 μM; for Emax: NT = no significant inhibitory activity for the parasite to 100 M (printed) compared to DMSO group, read-out: Maximum Effect; for Selectivity: IC50 to L. braziliensis lower than IC50 to L. amazonensis: ratio of promastigote IC50 values
Experimental: (§1) L. braziliensis promastigotes (MHOM/BR/87/BA788) were obtained from Dra. Valéria de Matos Borges at the Gonçalo Moniz Research Center, Fiocruz_BA. L. amazonensis promastigotes (MHOM/BR/77/LTB0016) were obtained from Dr. Eduardo Caio Torres dos Santos at the Oswaldo Cruz Institute-Fiocruz_RJ. The parasites were maintained in vitro in Schneider’s medium supplemented with 10% FBS and 2% human urine at 27 °C in BOD incubator.
(§2) The parasites were maintained in vitro in Schneider’s medium supplemented with 10% FBS and 2% human urine. Novel bis-lawsone analog stock solutions and pentamidine (reference leishmanicidal drug) were prepared in DMSO immediately before use. The cytotoxicities of the bis-lawsone analogs and pentamidine against the promastigotes were determined. Stationary phase L. braziliensis and L. amazonensis promastigotes were plated in 96-well vessels (Nunc, Roskilde, Denmark) at 1 × 10^5 cells per well in Schneider’s medium supplemented with 10% FBS and 2% human urine. Each compound solution was added at increasing concentrations (0.1–100 mg to the extract and its phases or 0.1–100 µΜ to the isolates and pentamidine). The cells were also cultured in a medium free of compounds, a vehicle (basal growth control) or with DMSO 0.1% (vehicle control). After 48 h, the extracellular load for L. braziliensis and L. amazonensis promastigotes was estimated by counting the promastigotes in Schneider’s medium using a CELM automatic cell counter (model CC530, Barueri, Brazil). The data obtained from experiments were expressed as the mean ± S.E.M., and the significant differences between the treated and vehicle groups were evaluated using ANOVA and Dunnett post-hoc tests.

[2] = Cytotoxicity against host cells (MTT assay); type: cell-based; settings: mouse, J774 macrophage cell line; J774 macrophages, MTT assay, 48 h, maximal concentration 100 μM; read-out: LC50
Experimental: (§3) The adherent-phenotype macrophage line was cultured in Dulbecco’s Modified Eagle’s medium (DMEM, Sigma, Dublin, Ireland) supplemented with 10% FBS at 37 °C, 95% humidity and 5% CO2.
(§4) To evaluate the cytotoxicity activity against the J774 cell line, the host cells were plated in 96-well vessels at 2 × 10^5 cells per well in a complete culture medium with 10% FBS at 37 °C. After 1 h, the wells were washed with HBSS to remove non-adherent cells, leaving approximately 1 × 10^5 adherent macrophages. The cells were cultured in DMEM complete medium supplemented with 10% FBS. The compounds and pentamidine were added at serial concentrations (0.1–100 µM). The cells were also cultured in media free from compounds, a vehicle (basal growth control) or media with DMSO 0.1% (vehicle control). The positive control (dead cells) was obtained through cellular lyses with 1% of Triton X-100 in DMEM complete medium. After 48 h, the cytotoxicity was evaluated using the MTT assay. The data obtained from the experiments were expressed as the mean ± S.E.M., and the significant differences between the treated and vehicle groups were evaluated using ANOVA and Dunnett post-hoc tests.

J774 cell line = experiment: Cytotoxicity against host cells (MTT assay); type: cell-based; settings: for Effect on J774 cell line viability / cytotoxicity to the host cells (in words): 48 h of incubation, at 100 µM; for Maximum Cytotoxicity: J774 macrophages, MTT assay, 48 h, NT = no significant lethal activity to cell until 100 M (printed) compared to DMSO group
Experimental: as §3, §4

[3] = In vivo toxicity (spleen weight, plasma biochemistry) in infected BALB/c mice; settings: BALB/c mice infected with L. amazonensis, 30 μmol/kg/day × 28 days, i.p.
Description: (§5) This study was approved (protocol no. 2013.02) by the Ethics Committee for Animal Experimentation of the Federal University of Alagoas (Brazil). All animals received humane care in compliance with the “Principles of laboratory animal care” formulated by the National Society for Medical Research and the “Guide for the care and use of laboratory animals” prepared by the National Academy of Sciences (Washington, DC, USA). Next, 1 × 10^5 stationary promastigotes (5 days of culture in Schneider’s medium) of L. amazonensis (MHOM/BR/77/LTB0016) were subcutaneously inoculated into the right ear dermis of 6-week-old female BALB/c mice weighing ca. 20 g. and were later intraperitoneally treated with 3a or glucantime at 30 μmol/kg × 28 days. The lesion size was measured using a paquimeter. The parasite loads of infected ears and draining lymph nodes were determined using a quantitative limiting-dilution assay. Complex toxicity was also evaluated through biochemistry dosages in plasma. The experimental data were expressed as the mean ± S.E.M., and the significant differences between the treated and vehicle groups were evaluated using ANOVA and Dunnett post-hoc tests.

[4] = system: L. amazonensis promastigotes; experiment: In vitro activity against L. amazonensis promastigotes; type: cell-based; settings: Leishmania amazonensis, 48 h; for IC50: maximal concentration 100 μM; for Emax: up to 100 μM, read-out: Maximum Effect
Experimental: as §1, §2

L. amazonensis [5] = experiment: In vivo activity against Leishmania amazonensis in infected BALB/c mice; settings: 30 μmol/kg/day × 28 days, i.p.; for Parasite load in the draining lymph node / Parasite load in the infected ear: limiting-dilution assay
Description: as §5

Leishmania = system: Leishmania; set-up: method as in PMID 15654435; settings: cited from earlier work
L. amazonensis [6] = system: L. amazonensis; set-up: method as in PMID 15654435; settings: promastigotes; cited from earlier work
L. braziliensis = system: L. braziliensis; set-up: method as in PMID 15654435; settings: promastigotes; cited from earlier work
promastigote forms = settings: stated as reason for choice of reference drug; no reference given; cited from earlier work

Compound	IC50 [1] [µM]	Emax [1] [%]	CC50 at 48 h [2] [µM]	IC50 [4] [µM]	Emax [4] [%]	also measured
O=C1C(O)=C(CC2=C(O)C(=O)c3ccccc3C2=O)C(=O)c2ccccc21 [Compound 3a, 3,3'-(Methylene)-bis[2-hydroxy-1,4-naphthalenedione]]	0.9 ± 0.08	88.4 ± 0.9	> 100	71 ± 1.1	72.8 ± 1	Selectivity: IC50 to L. braziliensis lower than IC50 to L. amazonensis [1]: 10 times; Effect on J774 cell line viability / cytotoxicity to the host cells (in words) (J774 cell line): without cytotoxicity; Alanine aminotransferase (ALT) in plasma [3]: nor altered; Aspartate aminotransferase (AST) in plasma [3]: nor altered; Spleen weight ([3]; last day of treatment): neither induced a change; Parasite load in the draining lymph node (L. amazonensis [5]): did not decrease; Parasite load in the infected ear (L. amazonensis [5]): did not decrease; Lesion size for the infected ear (L. amazonensis [5]; third week after the treatment began): decreased
CCCCCC(C1=C(O)C(=O)c2ccccc2C1=O)C1=C(O)C(=O)c2ccccc2C1=O [Compound 3b, 3,3'-(Hexylidene)-bis[2-hydroxy-1,4-naphthalenedione]]	5.2 ± 0.1	93 ± 0.1	> 100	5.2 ± 0.1	57.2 ± 3.8	Effect on J774 cell line viability / cytotoxicity to the host cells (in words) (J774 cell line): without cytotoxicity
CCC(CC)C(C1=C(O)C(=O)c2ccccc2C1=O)C1=C(O)C(=O)c2ccccc2C1=O [Compound 3c, 3,3'-(2-Ethylbutylidene)-bis[2-hydroxy-1,4-naphthalenedione]]	34.7 ± 4.3	90.4 ± 0.7	67.4 ± 2.1	0.4 ± 0.1	75.3 ± 1.3	Maximum Cytotoxicity (J774 cell line): 71.7% ± 3.8% and 71.7 ± 3.8 %
O=C1C(O)=C(C(C2=C(O)C(=O)c3ccccc3C2=O)c2ccccc2)C(=O)c2ccccc21 [Compound 3d, 3,3'-(Phenylmethylene)-bis[2-hydroxy-1,4-naphthalenedione]]	> 100		> 100	0.3 ± 0.1	85 ± 3.8	Activity against promastigote forms of L. braziliensis (in words) ([1]; until 100 µM): did not present activity
COc1ccc(C(C2=C(O)C(=O)c3ccccc3C2=O)C2=C(O)C(=O)c3ccccc3C2=O)cc1 [Compound 3e, 3,3'-(4-Methoxyphenylmethylene)-bis[2-hydroxy-1,4-naphthalenedione]]	0.9 ± 0.04	61.6 ± 7.5	> 100	> 100	44.6 ± 2.4	Selectivity: IC50 to L. braziliensis lower than IC50 to L. amazonensis [1]: 10 times; Effect on J774 cell line viability / cytotoxicity to the host cells (in words) (J774 cell line): without cytotoxicity
O=C1C(O)=C(C(C2=C(O)C(=O)c3ccccc3C2=O)c2ccc(O)cc2)C(=O)c2ccccc21 [Compound 3f, 3,3'-(4-Hydroxyphenylmethylene)-bis[2-hydroxy-1,4-naphthalenedione]]	38.7 ± 2	91.7 ± 0.3	> 100	68.7 ± 15.1	55.4 ± 4.7	
O=C1C(O)=C(C(C2=C(O)C(=O)c3ccccc3C2=O)c2ccc([N+](=O)[O-])cc2)C(=O)c2ccccc21 [Compound 3g, 3,3'-(4-Nitrophenylmethylene)-bis[2-hydroxy-1,4-naphthalenedione]]	2.8 ± 0.1	91.7 ± 1.3	> 100	7.7 ± 1.2	55.6 ± 3.2	
O=C1C(O)=C(C(C2=C(O)C(=O)c3ccccc3C2=O)c2ccc(F)cc2)C(=O)c2ccccc21 [Compound 3h, 3,3'-(4-Fluorophenylmethylene)-bis[2-hydroxy-1,4-naphthalenedione]]	0.8 ± 0.03	88.7 ± 0.3	> 100	0.6 ± 0.2	51 ± 5.5	Effect on J774 cell line viability / cytotoxicity to the host cells (in words) (J774 cell line): without cytotoxicity
CC(C)=CCC1=C(O)C(=O)c2ccccc2C1=O [Lapachol]						Antileishmanial activity (in words) (Leishmania): significant activity
N=C(N)c1ccc(OCCCCCOc2ccc(C(=N)N)cc2)cc1 [Pentamidine, reference compound]	0.8 ± 0.06	91 ± 0.1	73 ± 6	2.3 ± 0.8	85.4 ± 0.4	Maximum Cytotoxicity (J774 cell line): 78.0 ± 3.8 %; Maximum Cytotoxicity (J774 cell line; listed as pentamidine): 78.0% ± 3.8%
CC(C)CCC1=C(O)C(=O)c2ccccc2C1=O [dihydrolapachol]						Antileishmanial activity (in words) (Leishmania): significant activity
CC(=O)OC1=C(C=CC(C)C)C(=O)c2ccccc2C1=O [isolapachol acetate]						IC50 (L. amazonensis [6]): 1.6 µg/mL; IC50 (L. braziliensis): 3.4 µg/mL
isolapachol						Antileishmanial activity (in words) (Leishmania): significant activity
meglumine antimoniate [glucantime, reference compound]						Parasite load in the draining lymph node (L. amazonensis [5]): did not decrease; Parasite load in the infected ear (L. amazonensis [5]): did not decrease; Activity against promastigote forms (in words) (promastigote forms): not active
